Test results from article PMC3389674, “Comparison of Soluble Guanylate Cyclase Stimulators and Activators in Models of Cardiovascular Disease Associated with Oxidative Stress” (Frontiers in Pharmacology, 2012).
Where two headings read alike, the source gives them in different places.

Key:
SHR-SP isolated aorta = assay: vasoactivity of SHR-SP isolated aorta (ND, HSFD and after chronic treatment); set-up: species or system rat; details: for EC50: Rattus norvegicus
Protocol: In separate studies, endothelial function was assessed following chronic (7 week) BAY 60-4552 or GSK2181236A treatment in SHR-SP on HSFD. SHR-SP fed either normal or HSFD served as controls. Rats were anesthetized and thoracic aorta were isolated and treated with KCl and phenylephrine as described above. Cumulative concentration-response curves to phenylephrine were obtained by adding 0.5 log unit increments (1 nM to 3 μM). Following several washes with KHB, each vessel was contracted to equilibrium with 0.3 μM phenylephrine and tone was reversed by adding cumulative amounts of carbachol at 0.5 log unit intervals (10 nM to 30 μM). Following several KHB washes, the tissues were again contracted to equilibrium with 0.3 μM phenylephrine and tone was reversed by adding cumulative amounts of SNP at 0.5 log unit intervals (0.1 nM to 3 μM). In separate tissues from both the normal and HSFD SHR-SP control groups, the direct vasodilatory effects of BAY 60-4552 and GSK2181236A were investigated. Contractile tone induced by 0.3 μM phenylephrine was reversed by adding cumulative concentrations of BAY 60-4552 or GSK2181236A to the tissue baths at log increments (0.1 nM to 10 μM).

dogs = system: dogs; set-up: method as in Korkmaz et al., 2009; details: administered 5 min prior to reperfusion following 60 min global cardiac ischemia; ref Korkmaz et al., 2009; cited from earlier work
rat hearts = system: rat hearts; set-up: method as in Krieg et al., 2009; details: administered 5 min prior to reperfusion following 30 min regional ischemia; ref Krieg et al., 2009; cited from earlier work
rabbit hearts = system: rabbit hearts; set-up: method as in Krieg et al., 2009; Cohen et al., 2010; details: administered 5 min prior to reperfusion following 30 min regional ischemia; ref Krieg et al., 2009; Cohen et al., 2010; cited from earlier work

With CNC[C@H](O)c1cccc(O)c1 [Phenylephrine, phenylephrine] the EC50 (SHR-SP isolated aorta; aorta from HSFD SHR-SP, read-out: Phenylephrine EC50 (contraction)) was 72 ± 11 nM, the EC50 (SHR-SP isolated aorta; aorta from ND SHR-SP, read-out: Phenylephrine EC50 (contraction)) was 67 ± 6 nM and the “Phenylephrine Emax” value (SHR-SP isolated aorta; aorta from HSFD SHR-SP) was 83 ± 10 % KCl. For the same compound, the “Phenylephrine Emax” value (SHR-SP isolated aorta; aorta from ND SHR-SP) was 90 ± 4 % KCl.

For C[N+](C)(C)CCOC(N)=O [Carbachol, carbachol], the EC50 (SHR-SP isolated aorta; aorta from HSFD SHR-SP, read-out: Carbachol EC50 (vasodilation)) was 260 ± 74 nM, the EC50 (SHR-SP isolated aorta; aorta from ND SHR-SP, read-out: Carbachol EC50 (vasodilation)) was 119 ± 15 nM and the “Carbachol Emax” value (SHR-SP isolated aorta; aorta from HSFD SHR-SP) was 47 ± 11 % reversal of PE tone. For the same compound, the “Carbachol Emax” value (SHR-SP isolated aorta; aorta from ND SHR-SP) was 85 ± 3 % reversal of PE tone.

For O=C(O)CCCCN(CCc1ccccc1OCc1ccc(CCc2ccccc2)cc1)Cc1ccc(C(=O)O)cc1 [BAY 58-2667], the cardiac function (dogs) is given as “improved cardiac function”, the infarct size (rat hearts) is given as “decreased infarct size” and the infarct size (rabbit hearts) is given as “decreased infarct size”.
